Data taken from US20160228575A1, “NARINGENIN COMPLEXES AND METHODS OF USE THEREOF” (THE GENERAL HOSPITAL CORPORATION, priority 2008, published 2016).

Legend:
[1] = tested on: primary human hepatocytes
[2] = tested on: actin; experiment: Actin mRNA level by qPCR in infected Huh7.5.1 cells; type: cell-based, human; conditions: naringenin 24 hours
Method: Virus samples collected in each experiment were filtered with a 0.45 μm filter and a volume of 100 μL for each sample was heated at 95° C. for 45 min. The reverse transcription reaction step was performed on a Mastercycler epgrdientS (Eppendorf) instrument using Omniscript and Sensiscript RT Kits (Qiagen). Real time PCR was performed on a Light Cycler LC-24 (Idaho Technology), using SuperScript™ III Platinum® CellsDirect Two-Step qRT-PCR Kits (Invitrogen) for quantitative PCR. For reverse transcription step, 2 μL of sample without RNA extraction were used. For real time PCR, 1 μL of the reverse transcription reactions was used. All reactions were performed according to the manufacturer's instructions using the primers detailed in Table 1.

[3] = oral; cited from earlier work
[4] = tested on: Caco-2 cell monolayer; experiment: Transport across Caco-2 cell monolayer (apical to basolateral); type: in vitro ADME; conditions: human, Caco-2, 2 h, pH 7.35
Method: The Caco-2 cell line is an immortalized line of human epithelial colorectal adenocarcinoma cells, which is widely used by the pharmaceutical industry to predict the absorption rate of candidate drug compounds across the intestinal epithelial cell barrier. Caco-2 cells were grown and allowed to form confluent monolayers on transwell filters for 21 days as previously described^39. In detail, Caco-2, human epithelial colorectal adenocarcinoma cells were cultured in tissue culture flasks (Becton Dickinson and Co., Lincoln Park, N.J.). The growth medium was Dulbecco's modified Eagle's medium supplemented with 10% fetal bovine serum, 1% nonessential amino acids, and 4 mM glutamine without antibiotics. The monolayer cultures were grown in a CO2 incubator (5% CO2) at 37° C. The cells were harvested with 0.25% trypsin and 0.2% EDTA (0.5 to 1 min at 37° C.), resuspended, and seeded into a new flask. Cells between 30 to 53 passages were used.
For the transport studies, Caco-2 cells were seeded on Transwell (0.4-μm pore size, 1-cm^2 growth area; Corning Costar Co.) at a cell density of 1×10^5 cells/filter. Cell growth and maintenance was kept as previously described (98). […] The concentrations of Naringenin or HPbCD-Neringenin were determined as described and plotted as a concentration on the basolateral side vs. time. […]

Structure (SMILES): O=C1C[C@@H](c2ccc(O)cc2)Oc2cc(O)cc(O)c21 [naringenin]
- concentration up to which naringenin is non-toxic to freshly isolated human hepatocytes ([1]; 24 hours exposure): greater than 1000 μM
- naringenin concentration above which human hepatocyte viability dropped significantly ([1]; 24 hours exposure): greater than 1000 μl
- human hepatocyte viability ([1]; human, 24 h, 200 μM): 81%±3%
- actin mRNA level [2]: remained unchanged
- absorbance through the intestinal wall (intestinal absorption) [3]: about 6%
- maximal naringenin concentration in basal chamber [4]: 0.05 mM
